Measurements published in patent US20230372569A1 (priority 2020, published 2023).

Tests used:
[1] = acetic acid value given as TWA; cited from earlier work
[2] = tested on: Clostridium difficile ATCC43539; experiment: Room decontamination test, inoculated dirty petri dishes (5% horse serum), two hours; assay type: cell-based; conditions: 5% w/w peracetic acid solution, 66 m^3 room
Experimental: A room of volume 66 m^3 (6 m×4.2 m (floor area)×2.6 m (height)) was used as a test room. The room was closed in the usual way, that a domestic, clinic or hospital room would be closed off by closing windows, doors and external vents and turning off any air-conditioning. However, the room was not hermetically sealed and a small amount of airflow was permissible. The temperature of the test room was ambient room temperature (between 20° C. and 25° C.).
A peracetic acid vapour/mist generator (nebulizer) was positioned along the smaller wall, at a height of about 1.21 m.
The peracetic acid vapour/mist generator utilised a commercially available 5% w/w peracetic acid solution. Peracetic acid is sold as an equilibrium mixture of hydrogen peroxide, acetic acid and water. 5% w/w Peracetic acid solution typically comprises 20-30% w/w hydrogen peroxide, 6-10% w/w acetic acid 4.5-5.4% w/w peracetic acid and the balance being water. In many embodiments of the present invention, the 5% w/w peracetic acid solution used comprised 24% w/w hydrogen peroxide, 7.5% w/w acetic acid 5% w/w peracetic acid and the balance being water.
The peracetic acid vapour/mist generator was also accompanied by a UV light that was located in the same housing. […] That is a known germicidal wavelength. The UV light shone upon all the exposed surfaces in the room. The UV lamp was 18 watts. The bulb used synthetic quartz to prevent escape of 185 nm ozone-forming radiation.
The UV-C light and peracetic acid vapour/mist generator could be operated independently or simultaneously, allowing for a direct comparison of the individual decontaminating agents with each other and with the combination.
Immediately before commencing sterilization, petri dishes containing inoculum were placed at three discrete locations within the room—one close to the UV/peracetic acid device (e.g. 80 cm from the device), one in the middle of the room and the other at the opposite end of the room. The dishes were also placed at differing heights. The petridishes were “dirty” and contained 5% horse serum. […] The number of microorganisms was counted. […]

Pseudomonas aeruginosa = experiment: Deactivation kinetics (Weibull model) with PAA, with and without UVC; assay type: cell-based
Excerpt: (§1) In most cases, especially for the PAA+UVC combination, they are nonlinear in coordinates log10[CFU]:-t. Formally it means that it was not a classical first-order reaction. The first-order model assumes that the cells and spores in a population have the same resistance and that the relationship between the decline in the number of survivors over the treatment time is linear. The model can be written as log10(N/N0)=−kt, where N0 is the initial number of cells (CFU/ml), N is the number of survivors after an exposure time t (CFU/ml), k is the rate parameter, and t is the treatment time (min). The D value, a typical index of inactivation kinetics, is the decimal reduction time in minutes (time required to kill 90% of the organisms).
(§2) The Weibull model assumes that the survival curve is a cumulative distribution of lethal effects. The cumulative form of the Weibull distribution is given by log10(N/N0)=[…], where b and n are the scale and shape parameters, respectively. When the shape parameter n is greater than or less than 1, the shape of the survival curve will present a shoulder or tailing, respectively. When n=1, the cumulative form of the Weibull distribution reduces to the first-order rate equation. For the Weibull model, the parameter td, which is analogous to the traditional D value, can be determined. td is the time required for d log reductions of the number of microorganisms and was calculated by the parameters b and n as shown in the equation
(§3) where d is the desired log reduction, b=k and 2.303 is coefficient due to the shift from base e logarithms to base 10 ones.

Candida albicans = experiment: as above; assay type: cell-based
Excerpt: as §1, §2, §3

Salmonella enterica = experiment: as above; assay type: cell-based
Excerpt: as §1, §2, §3

Staphylococcus aureus = experiment: as above; assay type: cell-based
Excerpt: as §1, §2, §3

| Compound | vapour safety level [1] [ppm] | Log reduction, Location 1 ([2]; Location 1 (close to device)) | Log reduction, Location 2 ([2]; Location 2 (middle of room)) | Log reduction, Location 3 ([2]; Location 3 (opposite end of room)) | D (decimal reduction time) (Pseudomonas aeruginosa) [min] | k (Weibull deactivation constant) (Pseudomonas aeruginosa) [h⁻¹] | n (Weibull shape parameter) (Pseudomonas aeruginosa) | D (decimal reduction time) (Candida albicans) [min] | k (Weibull deactivation constant) (Candida albicans) [h⁻¹] | n (Weibull shape parameter) (Candida albicans) | D (decimal reduction time) (Salmonella enterica) [min] | k (Weibull deactivation constant) (Salmonella enterica) [h⁻¹] | n (Weibull shape parameter) (Salmonella enterica) | D (decimal reduction time) (Staphylococcus aureus) [min] | k (Weibull deactivation constant) (Staphylococcus aureus) [h⁻¹] | n (Weibull shape parameter) (Staphylococcus aureus) |
| --- | --- | --- | --- | --- | --- | --- | --- | --- | --- | --- | --- | --- | --- | --- | --- | --- |
| CC(=O)O [acetic acid] | 10 | – | – | – | – | – | – | – | – | – | – | – | – | – | – | – |
| CC(=O)OO [Peracetic Acid only, Peracetic acid] | 0.17 | Log 0.71 log | log 0.97 | log 1.19 | 168 | 0.052 | 1.5 | 37 | 0.45 | 1.25 | 70 | 0.2 | 1.24 | 223 | 0.055 | 1.13 |
